From ChEMBL document CHEMBL1150634, “New dimeric macrolide glycosides from the marine sponge Myriastra clavosa” (J Nat Prod, 2002)
Activity calls are given as the source filed them.

How the values were obtained:
Type in all cases: functional, cell-based
COLO 205 = assay: Cytotoxicity against human COLO205 cells at 10 ug/mL after 2 days by XTT assay
LOX = assay: Cytotoxicity against human LOX cells at 10 ug/mL after 2 days by XTT assay
Malme-3M = assay: Cytotoxicity against human MALME-3M cells at 10 ug/mL after 2 days by XTT assay
K562 = assay: Cytotoxicity against human K562 cells at 10 ug/mL after 2 days by XTT assay
MOLT-4 = assay: Cytotoxicity against human MOLT4 cells at 10 ug/mL after 2 days by XTT assay
A549 = assay: Cytotoxicity against human A549 cells at 10 ug/mL after 2 days by XTT assay
NCI-H460 = assay: Cytotoxicity against human H460 cells at 10 ug/mL after 2 days by XTT assay
OVACR3 = assay: Cytotoxicity against […] at 10 ug/mL after 2 days by XTT assay
SNB-19 = assay: Cytotoxicity against human SNB19 cells at 10 ug/mL after 2 days by XTT assay
MCF7 = assay: Cytotoxicity against human MCF7 cells at 10 ug/mL after 2 days by XTT assay

Measured: Activity

CO[C@@H]1[C@@H](OC)[C@H](O[C@H]2C[C@H]3C[C@@H]([C@H]4C[C@@H]4C)OC(=O)C[C@@H]4O[C@@H](C[C@H](O[C@@H]5OC[C@@H](OC)[C@H](OC)[C@H]5OC)[C@H]4C)C[C@@H]([C@H]4C[C@@H]4C)OC(=O)C[C@H](O3)[C@@H]2C)OC[C@H]1O
inactive: COLO 205 | LOX | Malme-3M | K562 | MOLT-4 | A549 | NCI-H460 | OVACR3 | SNB-19 | MCF7
